In patent publication US20240277698A1, “METHODS OF USING ALDOSTERONE SYNTHASE INHIBITORS” (CINCOR PHARMA, INC., priority 2021, published 2024):
Read-outs that look alike come from different tables or passages of the source.

How the values were obtained:
[1] = Renal impairment study, single 10 mg dose: pharmacokinetics; format: in vivo, human; settings: for geometric mean ratio AUC(0-inf) versus control group / geometric mean ratio AUC(0-last) versus control group / geometric mean ratio Cmax versus control group: single 10 mg dose
Experimental: Of particular relevance to study subjects who will be enrolled in this trial is the investigation of the pharmacokinetics of (R)-compound 1 in individuals with varying degrees of renal impairment. The PK profiles of (R)-compound 1 and its primary metabolite following administration of a single 10 mg dose in individuals with renal impairment were qualitatively and quantitatively similar to those measured in healthy subjects. […] There were no noteworthy increases in systemic exposure or decrease in clearance in individuals with impaired renal function. Dose adjustment of (R)-compound 1 based on renal function was therefore not necessary.
One subject with end stage disease experienced an unrelated SAE of metabolic encephalopathy and a moderate unrelated adverse event (AE) of tremor. One control subject experienced a mild AE of diarrhea, which was considered to be related to study drug by the Investigator. […] It is not necessary to dose adjust (R)-compound 1 for patients with renal impairment.
There was no substantial impact of renal impairment on the PK of (R)-compound 1 based on pair-wise comparisons and no strong or nonlinear relationship between estimated GFR and PK parameters was observed. Findings for the primary metabolite of (R)-compound 1 was similar to those for parent with no clinically meaningful differences observed across groups. The percent of the dose excreted renally was approximately 12% in the control group and the moderate to severe renal impairment group. […] Based on the results of this study, dose adjustment of (R)-compound 1 in renally impaired individuals is not considered necessary.

[2] = Multiple-ascending dose (MAD) study, once daily for 10 days in healthy subjects: plasma pharmacokinetics; format: in vivo, human; settings: for AUC extrap / CLss/F / RAUC (accumulation ratio AUC0-tau/AUC0-24h) / RCmax (accumulation ratio Cmax, D10/Cmax, D1) / AUC(0-t) / Cmax / AUC(0-inf) / AUC / Vd/F / half-life: mean (CV %); for AUC(0-t): read-out: AUC0-24 h; for AUC: read-out: AUC0-tau; for Vd/F: read-out: Vss/F; for half-life: read-out: t½ (converted)
Experimental: This was a randomized, double-blind study to assess the safety, tolerability, PK, and PD of multiple oral doses of (R)-compound 1 when administered to healthy adult subjects. The study consisted of 5 cohorts, with up to 12 subjects per cohort. Subjects were randomized in a 3:1 ratio to (R)-compound 1 or placebo once daily for 10 days as follows: • Cohort 1: 2.5 mg (R)-compound 1 or matching placebo (low salt diet in 9 subjects receiving (R)-compound 1 and 3 subjects receiving placebo); • Cohort 2: 5.0 mg (R)-compound 1 or matching placebo (low salt diet in 9 subjects receiving (R)-compound 1 and 3 subjects receiving placebo); • Cohort 3: 1.5 mg (R)-compound 1 or matching placebo (normal salt diet in 9 subjects receiving (R)-compound 1 and 3 subjects receiving placebo); • Cohort 4: 2.5 mg (R)-compound 1 or matching placebo (normal salt diet in 6 subjects receiving (R)-compound 1 and 2 subjects receiving placebo); and • Cohort 5: 0.5 mg (R)-compound 1 or matching placebo (normal salt diet in 9 subjects receiving (R)-compound 1 and 3 subjects receiving placebo).
For each subject, the study consisted of: • A screening period of up to 28 days; • A 5-day inpatient run-in period during which subjects adhered to a controlled, standardized diet and underwent baseline PD assessments; • A 15-day inpatient treatment period, during which subjects received (R)-compound 1 or placebo once daily for 10 days while adhering to a controlled, standardized diet, followed by PK and PD sampling over an additional 5 days; and • A follow-up visit 3 days (1 day) after discharge from the clinical unit. • A cortisol stimulation test (Cohorts 1 and 2 only) and standing aldosterone assessment (all cohorts) were performed on Days 1 and 10. Serial blood samples for PK and PD were obtained prior to and at specified time points over 24 hours after dosing on Day 1 as well as prior to and at specified time points over 120 hours after dosing on Day 10. In addition, blood samples for PK were collected prior to dosing on Days 8 and 9. Urine for PK and PD measurements was collected over 24 hours starting just prior to dosing on Day 1 as well as over 120 hours starting just prior to dosing on Day 10.
Study subjects were dosed with (R)-compound 1 (oral drinking solution) or matching placebo. The doses of (R)-compound 1 administered were 2.5 and 5.0 mg with a low salt diet and 1.5, 2.5, and 0.5 mg with a normal salt diet.
(only for (R)-compound 1).

[3] = moderate to severe renal impairment group
[4] = 0.5 mg QD, normal salt diet, Day 10
[5] = 1.5 mg QD, normal salt diet, Day 10
[6] = 2.5 mg QD, low salt diet, Day 10
[7] = 2.5 mg QD, normal salt diet, Day 10
[8] = 5.0 mg QD, low salt diet, Day 10
[9] = human, plasma, oral, 0.5 mg, 0.5 mg QD, normal salt diet, Day 10
[10] = human, plasma, oral, 1.5 mg, 1.5 mg QD, normal salt diet, Day 10
[11] = human, plasma, oral, 2.5 mg, 2.5 mg QD, low salt diet, Day 10
[12] = human, plasma, oral, 2.5 mg, 2.5 mg QD, normal salt diet, Day 10
[13] = human, plasma, oral, 5 mg, 5.0 mg QD, low salt diet, Day 10

For `CCC(=O)N[C@@H]1CCCc2c(-c3ccc4c(c3)CCC(=O)N4C)cncc21` [(R)-Compound 1, (R)—N-(4-(1-methyl-2-oxo-1,2,3,4-tetrahydroquinolin-6-yl)-5,6,7,8-tetrahydroisoquinolin-8-yl)propionamide], the “percent of the dose excreted renally” value ([1]; control group) was “approximately 12%”, the renal excretion ([1]; kidney failure group) was “negligible renal excretion” and the “geometric mean ratio AUC(0-inf) versus control group” value ([1]; kidney failure group) was 0.68. For the same compound, the “geometric mean ratio AUC(0-last) versus control group” value ([1]; kidney failure group) was 0.68, the “geometric mean ratio Cmax versus control group” value ([1]; kidney failure group) was 0.88 and the “percent of the dose excreted renally” value [1, 3] was “approximately 12%”. The “geometric mean ratio AUC(0-inf) versus control group” value [1, 3] was 1.21, the “geometric mean ratio AUC(0-last) versus control group” value [1, 3] was 1.17 and the “geometric mean ratio Cmax versus control group” value [1, 3] was 1.02. For the same compound, the AUC extrap [2, 4] was 6.325 (42.2) %, the CLss/F [2, 4] was 3.421 (29.4) L/h and the “RAUC (accumulation ratio AUC0-tau/AUC0-24h)” value ([2]; 0.5 mg QD, normal salt diet) was 1.960 (13.9). For the same compound, the “RCmax (accumulation ratio Cmax, D10/Cmax, D1)” value ([2]; 0.5 mg QD, normal salt diet) was 1.827 (14.2), the AUC extrap [2, 5] was 6.106 (65.9) % and the CLss/F [2, 5] was 3.350 (27.5) L/h. For the same compound, the “RAUC (accumulation ratio AUC0-tau/AUC0-24h)” value ([2]; 1.5 mg QD, normal salt diet) was 2.307 (13.8), the “RCmax (accumulation ratio Cmax, D10/Cmax, D1)” value ([2]; 1.5 mg QD, normal salt diet) was 2.132 (11.2) and the AUC extrap [2, 6] was 4.519 (45.4) %. For the same compound, the CLss/F [2, 6] was 3.277 (16.1) L/h, the “RAUC (accumulation ratio AUC0-tau/AUC0-24h)” value ([2]; 2.5 mg QD, low salt diet) was 2.147 (7.4) and the “RCmax (accumulation ratio Cmax, D10/Cmax, D1)” value ([2]; 2.5 mg QD, low salt diet) was 1.965 (15.1). For the same compound, the AUC extrap [2, 7] was 3.832 (85.6) %, the CLss/F [2, 7] was 4.315 (36.9) L/h and the “RAUC (accumulation ratio AUC0-tau/AUC0-24h)” value ([2]; 2.5 mg QD, normal salt diet) was 1.994 (22.3). For the same compound, the “RCmax (accumulation ratio Cmax, D10/Cmax, D1)” value ([2]; 2.5 mg QD, normal salt diet) was 1.706 (34.1), the AUC extrap [2, 8] was 5.397 (52.6) % and the CLss/F [2, 8] was 3.207 (26.3) L/h. For the same compound, the “RAUC (accumulation ratio AUC0-tau/AUC0-24h)” value ([2]; 5.0 mg QD, low salt diet) was 2.507 (10.2), the “RCmax (accumulation ratio Cmax, D10/Cmax, D1)” value ([2]; 5.0 mg QD, low salt diet) was 2.424 (13.6) and the AUC(0-t) ([2]; human, plasma, oral, 0.5 mg, 0.5 mg QD, normal salt diet, Day 1) was 79.5 ng·h/mL. The Cmax ([2]; human, plasma, oral, 0.5 mg, 0.5 mg QD, normal salt diet, Day 1, read-out: Cmax, D 1) was 5.36 ng/mL, the Tmax ([2]; human, plasma, oral, 0.5 mg, 0.5 mg QD, normal salt diet, Day 1, median (min, max), read-out: Tmax, D 1) was 2 h and the AUC(0-inf) [2, 9] was 351 ng·h/mL. For the same compound, the AUC [2, 9] was 155 ng·h/mL, the Cmax ([2]; human, plasma, oral, 0.5 mg, 0.5 mg QD, normal salt diet, Day 10, read-out: Cmax, D 10) was 9.72 ng/mL and the Vd/F [2, 9] was 152 L. The Tmax ([2]; human, plasma, oral, 0.5 mg, 0.5 mg QD, normal salt diet, Day 10, median (min, max), read-out: Tmax, D 10) was 2 h, the AUC(0-t) ([2]; human, plasma, oral, 1.5 mg, 1.5 mg QD, normal salt diet, Day 1) was 205 ng·h/mL and the Tmax ([2]; human, plasma, oral, 1.5 mg, 1.5 mg QD, normal salt diet, Day 1, median (min, max), read-out: Tmax, D 1) was 2.5 h. It also gave an AUC(0-inf) [2, 10] of 1110 ng·h/mL, an AUC [2, 10] of 480 ng·h/mL and a Vd/F [2, 10] of 137 L. It also gave a Tmax ([2]; human, plasma, oral, 1.5 mg, 1.5 mg QD, normal salt diet, Day 10, median (min, max), read-out: Tmax, D 10) of 2.5 h, an AUC(0-t) ([2]; human, plasma, oral, 2.5 mg, 2.5 mg QD, low salt diet, Day 1) of 366 ng·h/mL and a Tmax ([2]; human, plasma, oral, 2.5 mg, 2.5 mg QD, low salt diet, Day 1, median (min, max), read-out: Tmax, D 1) of 3 h. The AUC(0-inf) [2, 11] was 1490 ng·h/mL, the AUC [2, 11] was 783 ng·h/mL and the Cmax ([2]; human, plasma, oral, 2.5 mg, 2.5 mg QD, low salt diet, Day 10, read-out: Cmax, D 10) was 54 ng/mL. It also gave a Vd/F [2, 11] of 135 L, a Tmax ([2]; human, plasma, oral, 2.5 mg, 2.5 mg QD, low salt diet, Day 10, median (min, max), read-out: Tmax, D 10) of 2 h and an AUC(0-t) ([2]; human, plasma, oral, 2.5 mg, 2.5 mg QD, normal salt diet, Day 1) of 344 ng·h/mL. For the same compound, the Tmax ([2]; human, plasma, oral, 2.5 mg, 2.5 mg QD, normal salt diet, Day 1, median (min, max), read-out: Tmax, D 1) was 3 h, the AUC(0-inf) [2, 12] was 1460 ng·h/mL and the AUC [2, 12] was 677 ng·h/mL. It also gave a Vd/F [2, 12] of 150 L, a Tmax ([2]; human, plasma, oral, 2.5 mg, 2.5 mg QD, normal salt diet, Day 10, median (min, max), read-out: Tmax, D 10) of 3 h and an AUC(0-t) ([2]; human, plasma, oral, 5 mg, 5.0 mg QD, low salt diet, Day 1) of 658 ng·h/mL. It also gave an AUC(0-inf) [2, 13] of 3480 ng·h/mL, an AUC [2, 13] of 1660 ng·h/mL and a Vd/F [2, 13] of 134 L. For the same compound, the Tmax ([2]; human, plasma, oral, 5 mg, 5.0 mg QD, low salt diet, Day 10, median (min, max), read-out: Tmax, D 10) was 3 h, the Tmax ([2]; human, plasma, oral, 0.5 to 5 mg QD, read-out: median Tmax, range across treatment groups) was 0.98 to 4 h and the half-life ([2]; human, plasma, oral, 1.5 mg QD, normal salt diet, Day 10) was 29.9 h. For the same compound, the half-life ([2]; human, plasma, oral, 2.5 mg QD, normal salt diet, Day 10) was 25.5 h, the half-life ([2]; human, plasma, oral, 5.0 mg QD, low salt diet, Day 10) was 29.4 h and the half-life at 10 days ([2]; human, plasma, oral, approximately, read-out: mean t½, range) was 26 to 31 h. The “time after dosing within which peak concentrations typically observed” value ([2]; oral administration) was no more than 4 h.
